Data taken from the METLIN SMRT retention time set (Domingo-Almenara et al. 2019).

Assay: gradient 5% acetonitrile 3 min, to 50% in 2 min, to 85% in 15 min, held 3 min, 100 µL/min
Conditions: column: Zorbax Extend-C18 2.1 x 50 mm; eluents: water / acetonitrile, 0.1% formic acid
How it was run: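 Standards, all pure, were combined into mixtures of ~100 molecules and run at 100 μL/min on a Zorbax Extend-C18 column (2.1 × 50 mm, 1.8 μm) with water and acetonitrile, each containing 0.1% formic acid. A coupled quadrupole time-of-flight mass spectrometer operated in positive and negative ionization mode. Retention time values come from computationally picked adduct peaks, each inspected manually.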

RP-LC retention time [s] | Structure (SMILES)
743 | O=C(NCc1csc(-c2cccs2)n1)C1CCN(C(=O)c2ccccc2F)CC1
715 | O=C1COc2ccc(S(=O)(=O)N3CCC(C(=O)Nc4ccc5c(c4)OCO5)CC3)cc2N1
625 | O=C(CSc1nnc2c3ccccc3nc(-c3ccco3)n12)NCc1nc2ccccc2[nH]1
681 | CNC(=O)N1CCCN(C2=NS(=O)(=O)C(c3ccc(F)cc3)=C2C)CC1
700 | CCOc1ccn(-c2ccc(F)cc2)c(=O)c1C(=O)Nc1ccc(Oc2ccnc(N)c2Cl)c(F)c1
797 | CCn1c(=O)c(C(=O)NCc2cccc(F)c2)nc2cccnc21
562 | O=C(Nc1ccc2nnc(-c3ccc(C(=O)N4CCCCC4)cc3)n2c1)C1CCC1
1310 | Cc1c(F)cccc1NS(=O)(=O)c1cc(-c2nc(C(C)(C)C)cs2)cs1
750 | O=C(NCc1ccc(F)cc1F)C1CC(=O)N(c2ccc3c(c2)CCN3C(=O)C2CC2)C1 (centres undefined)
616 | Cc1cccc(NC(=O)N2CCC3(CC2)NC(=O)c2ccccc2N3C)c1
853 | CC1CCc2nc(NC(=O)CCS(=O)(=O)Cc3ccccc3)sc2C1 (centres undefined)
564 | Cc1nc([C@@H]2CN(C(=O)C(C)(C)C)C[C@H]2C(N)=O)n[nH]1
951 | CCCCn1nc2c(S(=O)(=O)N3CCN(c4ccc(F)cc4)CC3)cccn2c1=O
800 | CCOC(=O)c1[nH]c(C)c(C(=O)CN(CC2CCCO2)C(=O)c2ccc(F)cc2)c1C (centres undefined)
960 | Cc1cc(OCC(=O)Nc2ccc3c(c2)OCO3)nc(-c2ccc(F)cc2)n1
706 | O=C(C1CCCO1)N1CCCN(Cc2nc(-c3ccc(Cl)cc3)no2)CC1 (centres undefined)
669 | Cc1cccc(N(C)C(=O)Cn2nc3n(c2=O)CCCC3)c1
1020 | O=C([C@@H]1C[C@H](F)CN1S(=O)(=O)Cc1ccc(Cl)cc1)N1CCc2ccccc2C1
994 | COc1cccc(Cc2nc(-c3cn(-c4ccc(F)cc4)nn3)no2)c1
796 | CCOc1ccc(NC(=O)N2CCC(C)(C(=O)NCc3ccc(F)cc3)CC2)cc1
811 | Cc1ccc(Nc2nc(C)cc(N3CCN(C(=O)Nc4ccc(F)c(Cl)c4)CC3)n2)cc1
599 | O=C(C1CCOCC1)N1CCC(c2noc(-c3ccccn3)n2)C1 (centres undefined)

RP-LC retention time [s] | Structure (SMILES)
832 | O=C(c1cccc2[nH]ccc12)N1CCN(c2cc(-c3cccs3)[nH]n2)CC1
669 | CCc1ccccc1NC(=O)NCC(c1cccnc1)c1c[nH]c2ccccc12 (centres undefined)
1160 | O=C(NC1CCCCC1)c1nc(-c2ccc(N3CCCC3)cc2)no1
645 | CN(C)CCNC(=O)C1CCN(c2nc3ccc(-c4ccsc4)nc3s2)CC1
951 | CC(C(=O)Nc1cccc(F)c1)C1CCN(C(=O)Nc2ccc(Cl)cc2)CC1 (centres undefined)
958 | O=C(c1cccc(Br)c1)N1CCN(c2cc(-c3ccc(Cl)cc3)[nH]n2)CC1
574 | Brc1ccc(CN2CCc3nc(N4CCN(c5ccccn5)CC4)ncc3C2)cc1
654 | Cc1cc(-n2nnc(C(=O)O)c2-c2ccncc2)ccc1F
564 | CC(=O)N(C)CC(=O)N1CCN(c2cc(C)nc(Nc3ccc(C)cc3)n2)CC1
667 | COc1ccc(NC(=O)N2CC(c3nc(C(C)C)nn3C)C2)c(OC)c1
592 | CN1CCCc2cc(C(=O)NCc3cccnc3)sc21
750 | O=C(Cn1c(-c2cnccn2)nc2ccccc21)N1CCN(c2ccccc2F)CC1
708 | O=C(NCc1ccc(F)cc1Cl)c1cn2ccccc2n1
680 | COc1ccc(F)cc1S(=O)(=O)N1CCCC(Cn2c(C)nc3cccnc32)C1 (centres undefined)
674 | O=C(O)CCC(=O)Nc1cccc(C(F)(F)F)c1
763 | Cc1ccc(NC(=O)N2CCCN(c3ccc(=O)n(-c4ccccc4)n3)CC2)c(C)c1
885 | O=C(Cn1c(=O)c(CCC(=O)NC2CCCC2)nc2ccccc21)Nc1ccc(Cl)cc1F
1070 | O=C1CC(c2noc(-c3ccccc3)n2)CN1c1ccc(F)c(Cl)c1 (centres undefined)
857 | O=C(Nc1cccc(Br)c1)C1CCN(C(=O)C2Sc3ccccc3NC2=O)CC1 (centres undefined)
726 | CCCCN1CCC(CCC(=O)c2cc(Cl)c(N)cc2OC)CC1
1320 | CC1CCN(c2nn(CC(=O)Nc3cccc(C(C)C)c3)c(=O)c3ccccc23)CC1
604 | CCOc1ccc(C2=NC3(CCN(C)CC3)NC(c3ccccc3O)C2)cc1 (centres undefined)

RP-LC retention time [s] | Structure (SMILES)
740 | COCCN1CCC2(CCC1=O)CCN(C(=O)Nc1ccc(Br)cc1)CC2
954 | O=C(NCc1ccco1)N1CCN(c2nc3ccccc3nc2C(F)(F)F)CC1
948 | Cc1ccccc1C(=O)Nc1nnc(SCc2nnc(-c3ccccc3C)o2)s1
564 | CCc1nccn1Cc1noc(-c2ccccc2Cl)n1
665 | Cn1nnnc1C1CCCN(C(=O)C2CCCC2)C1 (centres undefined)
698 | CC(=O)OC1CCN(C(=O)c2ccc(C#N)cc2)CC1
769 | Cc1cccc(Cn2c(=O)n(CCNC(=O)C(C)C)c3ncccc32)c1
899 | Brc1ccc(NCc2nnc(-c3ccccc3)o2)cc1
808 | Cc1cc(C)cc(NS(=O)(=O)c2cc3n(c2)CCN(C(C)C)C3=O)c1
832 | CC1CCN(S(=O)(=O)c2nn(C)cc2C(=O)NCc2ccc3c(c2)OCO3)CC1
711 | COc1ccc(NC(=O)c2c(C)oc3nc(C)nc(N4CCOCC4)c23)cc1OC
570 | CCN1CCN(CCNC(=O)C2CCCN(c3nnc(C)c4c(C)n(-c5ccccc5)nc34)C2)CC1 (centres undefined)
701 | O=C(C1CCN(c2nc(-c3ccc(Cl)cc3)no2)CC1)N1CCC(N2CCCCC2)CC1
861 | CCCCOc1ccc(NC(=O)Nc2ccc3c(c2)CN(C(=O)CC)CC3)cc1
578 | CC1CCCCN1CCNC(=O)C1CC(=O)N(c2ccc3c(c2)CCN3C(=O)C2CC2)C1 (centres undefined)
1160 | O=C(NCCC1=CCCCC1)c1nnc(-c2ccc(S(=O)(=O)N3CCCCC3)cc2)o1
587 | CCOC(=O)CC(=O)Nc1cc2c(cc1N1CCCC1)n(C)c(=O)n2C
585 | COCCCNC(=O)C1CCN(c2nc3ccc(-c4cccnc4)nc3s2)CC1
822 | CCOc1ccc(CC(=O)N2CCCC2c2cc(C)on2)cc1 (centres undefined)
980 | Cc1ccc2nc3sc(C(=O)Nc4cccc(C(F)(F)F)c4)cc3c(=O)n2c1
712 | CSc1ccc(-c2nc3ccccn3c2Nc2ccc3c(c2)OCCO3)cc1
742 | c1ccc(SCc2nnc3sc(-c4cccnc4)nn23)cc1

RP-LC retention time [s] | Structure (SMILES)
964 | Cc1ccc(C(=O)NCc2nc(-c3ccc(-c4csc(C)n4)cc3)no2)cc1
664 | CC(C(=O)NCC1CCCO1)N1C(=O)C2CCCCN2C(=O)c2ccccc21 (centres undefined)
612 | Cc1nnc(C2CC3(CCN(CC(C)C)CC3)CN2CCc2ccccc2)o1 (centres undefined)
924 | CC(=O)c1cccc(NC(=O)c2nn(C)c(C(F)(F)F)c2Cl)c1
1330 | Cc1ccc(Sc2nccnc2N2CCC(C(=O)N3CCN(c4ccccc4C)CC3)CC2)cc1
568 | Cc1ccc(Nc2ccc(NC(=O)c3ccccc3F)cc2)nn1
844 | Cc1c(C(=O)NCc2ccco2)nnn1-c1ccc(Br)cc1
808 | CC1CCN(c2cc(-c3noc(C(=O)NCc4ccco4)n3)ccn2)CC1
939 | O=C(c1ccc2c(c1)CCCN2S(=O)(=O)c1ccccc1)N1CCCCC1
1030 | O=C1CCC(=O)N1CCc1c[nH]c2ccc(OCc3ccccc3)cc12
799 | CCc1ccccc1NS(=O)(=O)c1cc(-c2[nH]ncc2C(=O)N2CCCCC2)oc1C
1040 | N#Cc1cnc(-c2ccc(F)cc2)n(CC(=O)Nc2ccc(C(F)(F)F)cc2)c1=O
652 | CCCNC(=O)C1CCCN(c2ccc(SCC(=O)NCc3ccc(F)cc3)nn2)C1 (centres undefined)
830 | COc1ccc(N2CCN(c3cc(SCC(=O)NCc4ccc(F)cc4)ncn3)CC2)cc1
990 | O=C(CN1C(=O)CCCc2cc(S(=O)(=O)N3CCCCC3)ccc21)Nc1ccc(Cl)cc1
850 | CNC(=O)c1cc(-c2cccc(F)c2)nc2ccccc12
925 | CCOC(=O)Cc1csc(NC(=O)c2cc3cc([N+](=O)[O-])ccc3s2)n1
900 | CC(C)CCNC(=O)c1cn(C)nc1S(=O)(=O)N1CCSCC1
575 | CCN1CCN(CCNC(=O)CCCN2C(=O)CCn3nc(-c4cccn4C)cc32)CC1
793 | CCCN1C(=O)C2(c3ccccc31)c1[nH]c3ccccc3c1CCN2C(=O)NCC (centres undefined)
1030 | CCCc1ccc(S(=O)(=O)NCc2c(-c3ccccc3)nc3sc(C)nn23)cc1
961 | CCOc1ccccc1NC(=O)c1cnc2c(c1)c(=O)n(C)c(=O)n2-c1ccc(OC)cc1

Structure (SMILES) | RP-LC retention time [s]
CCCn1cc(C(=O)Nc2ccccc2CC)c2cccnc21 | 919
